Reference: patent US5840684A, “Glycopeptide antibiotic derivatives” (Eli Lilly and Company, priority 1995, dated 1998)
In brackets after ≈: the same amount, converted by molar mass.

Key:
[1] = test system: vancomycin-susceptible enterococci; assay: broth micro-dilution, mean geometric MIC; format: cell-based, Enterococcus faecium and Enterococcus faecalis; settings: enterococci, 24-hour incubation
[2] = test system: vancomycin-resistant enterococci; assay: broth micro-dilution, mean geometric MIC; format: cell-based, Enterococcus faecium and Enterococcus faecalis; settings: enterococci, 24-hour incubation
[3] = test system: Staphylococcus aureus SA1199B; format: cell-based
Method: (§1) The MIC's were determined using a standard broth micro-dilution assay.

[4] = test system: Staphylococcus aureus S13E; format: cell-based
Method: as §1

Entercoccus faecium 180 = assay: broth micro-dilution MIC; format: cell-based; settings: Entercoccus faecium 180
Method: (§2) The formula I compounds have in vitro and in vivo activity against Gram-positive pathogenic bacteria. The MIC's were determined using a standard broth micro-dilution assay.

[5] = test system: Staphylococcus haemolyticus 105; assay: broth micro-dilution MIC; format: cell-based
Method: as §2

[6] = test system: Streptococcus pneumoniae P1; assay: broth micro-dilution MIC; format: cell-based
Method: as §2

Entercoccus faecium 2041 = assay: broth micro-dilution MIC; format: cell-based; settings: Entercoccus faecium 2041
Method: as §2

[7] = test system: Enterococcus gallinarum 245; assay: broth micro-dilution MIC; format: cell-based; settings: Enterococcus gallinarum 245
Method: as §2

[8] = test system: Staphylococcus epidermidis 270; assay: broth micro-dilution MIC; format: cell-based
Method: as §2

[9] = test system: Staphylococcus haemolyticus 415; assay: broth micro-dilution MIC; format: cell-based
Method: as §2

[10] = test system: Staphylococcus aureus 447; assay: broth micro-dilution MIC; format: cell-based
Method: as §1

Entercoccus faecium 276 = assay: broth micro-dilution MIC; format: cell-based
Method: as §1

[11] = test system: Staphylococcus aureus 446; assay: broth micro-dilution MIC; format: cell-based
Method: as §1

[12] = test system: Staphylococcus aureus SA1199A; assay: broth micro-dilution MIC; format: cell-based
Method: as §1

[13] = test system: Staphylococcus aureus X778; assay: broth micro-dilution MIC; format: cell-based
Method: as §1

[14] = test system: Staphylococcus aureus SA1199; assay: broth micro-dilution MIC; format: cell-based
Method: as §1

[15] = test system: Entercoccus faecium 180-1; assay: broth micro-dilution MIC; format: cell-based
Method: as §1

[16] = test system: Staphylococcus aureus X400; assay: broth micro-dilution MIC; format: cell-based
Method: as §1

[17] = test system: Staphylococcus aureus 491; assay: broth micro-dilution MIC; format: cell-based
Method: as §1

[18] = test system: Streptococcus pyogenes C203; assay: broth micro-dilution MIC; format: cell-based
Method: as §1

[19] = test system: Staphylococcus aureus 489; assay: broth micro-dilution MIC; format: cell-based
Method: as §1

SMILES	mean geometric MIC, Vancomycin Sensitive Strains [1] [µg/mL]	mean geometric MIC, Vancomycin Resistant Strains [2] [µg/mL]	MIC [3] [µg/mL]	MIC [4] [µg/mL]	MIC (Entercoccus faecium 180) [µg/mL]	MIC [5] [µg/mL]	MIC [6] [µg/mL]	MIC (Entercoccus faecium 2041) [µg/mL]	MIC [7] [µg/mL]	MIC [8] [µg/mL]	MIC [9] [µg/mL]	MIC [10] [µg/mL]	MIC (Entercoccus faecium 276) [µg/mL]	MIC [11] [µg/mL]	MIC [12] [µg/mL]	MIC [13] [µg/mL]	MIC [14] [µg/mL]	MIC [15] [µg/mL]	MIC [16] [µg/mL]	MIC [17] [µg/mL]	other results
CN[C@H](CC(C)C)C(=O)N[C@H]1C(=O)N[C@@H](CC(N)=O)C(=O)N[C@H]2C(=O)N[C@H]3C(=O)N[C@H](C(=O)N[C@H](C(=O)O)c4cc(O)cc(O)c4-c4cc3ccc4O)[C@H](O[C@H]3C[C@](C)(N)[C@@H](O)[C@H](C)O3)c3ccc(c(Cl)c3)Oc3cc2cc(c3O[C@@H]2O[C@H](CO)[C@@H](O)[C@H](O)[C@H]2O[C@H]2C[C@](C)(NCc3ccc(Oc4ccc(C(C)(C)C)cc4)cc3)[C@@H](O)[C@H](C)O2)Oc2ccc(cc2Cl)[C@H]1O [Compound 96]	0.11	1.4	1 (≈ 0.546 µM)	1 (≈ 0.546 µM)	0.5 (≈ 0.273 µM)	2 (≈ 1.09 µM)	≤ 0.06	1 (≈ 0.546 µM)	2 (≈ 1.09 µM)	2 (≈ 1.09 µM)	2 (≈ 1.09 µM)	1 (≈ 0.546 µM)	0.5 (≈ 0.273 µM)	1 (≈ 0.546 µM)	≤ 0.06	1 (≈ 0.546 µM)	2 (≈ 1.09 µM)	0.25 (≈ 0.137 µM)	2 (≈ 1.09 µM)	1 (≈ 0.546 µM)	MIC [18]: ≤ 0.06 µg/mL; MIC [19]: 1 µg/mL (≈ 0.546 µM)
CCCOC(c1ccccc1)c1ccc(CNC2(C)CC(OC3C(Oc4c5cc6cc4Oc4ccc(cc4Cl)C(OC4CC(C)(N)C(O)C(C)O4)C4NC(=O)C(NC(=O)C6NC(=O)C(CC(N)=O)NC(=O)C(NC(=O)C(CC(C)C)NC)C(O)c6ccc(c(Cl)c6)O5)c5ccc(O)c(c5)-c5c(O)cc(O)cc5C(C(=O)O)NC4=O)OC(CO)C(O)C3O)OC(C)C2O)cc1 (stereo not drawn) [Compound 128]	0.11	2.0	2 (≈ 1.09 µM)	1 (≈ 0.546 µM)	1 (≈ 0.546 µM)	1 (≈ 0.546 µM)	≤ 0.06	0.5 (≈ 0.273 µM)	2 (≈ 1.09 µM)	1 (≈ 0.546 µM)	2 (≈ 1.09 µM)	1 (≈ 0.546 µM)	1 (≈ 0.546 µM)	4 (≈ 2.18 µM)	0.5 (≈ 0.273 µM)	1 (≈ 0.546 µM)	0.5 (≈ 0.273 µM)	0.125 (≈ 0.0683 µM)	1 (≈ 0.546 µM)	2 (≈ 1.09 µM)	MIC [18]: ≤ 0.06 µg/mL; MIC [19]: 1 µg/mL (≈ 0.546 µM)
CNC(CC(C)C)C(=O)NC1C(=O)NC(CC(N)=O)C(=O)NC2C(=O)NC3C(=O)NC(C(=O)NC(C(=O)O)c4cc(O)cc(O)c4-c4cc3ccc4O)C(OC3CC(C)(N)C(O)C(C)O3)c3ccc(c(Cl)c3)Oc3cc2cc(c3OC2OC(CO)C(O)C(O)C2OC2CC(C)(NCc3ccc(OC)c(OCC4CCCCC4)c3)C(O)C(C)O2)Oc2ccc(cc2Cl)C1O (stereo not drawn) [Compound 142]	1.5	45	2 (≈ 1.1 µM)	2 (≈ 1.1 µM)	0.5 (≈ 0.274 µM)	1 (≈ 0.548 µM)	≤ 0.06	≤ 0.06	1 (≈ 0.548 µM)	0.25 (≈ 0.137 µM)	1 (≈ 0.548 µM)	2 (≈ 1.1 µM)	1 (≈ 0.548 µM)	2 (≈ 1.1 µM)	≤ 0.06	1 (≈ 0.548 µM)	1 (≈ 0.548 µM)	≤ 0.06	1 (≈ 0.548 µM)	0.5 (≈ 0.274 µM)	MIC [18]: ≤ 0.06 µg/mL; MIC [19]: 0.5 µg/mL (≈ 0.274 µM)
